Reference: ChEMBL document CHEMBL1132743, “Synthesis and biological evaluation of novel piperidine carboxamide derived calpain inhibitors” (Bioorg Med Chem Lett, 2000)
Square brackets hold non-standard residues; d marks the D form. Peptide text beside a SMILES is read from it. * marks the point of attachment. ξ: configuration not given here. ξF = NC(Cc1ccccc1)C(=O)O; Cbz = O=C(OCc1ccccc1)*

What was measured:
[1] = molecular target: T1, Calpain-1 catalytic subunit (Homo sapiens, UniProt P07384); experiment: Inhibition of Suc-Leu-Tyr-AMC binding to human mu-calpain from erythrocytes; format: biochemical
T1 sequence (P07384 whole entry): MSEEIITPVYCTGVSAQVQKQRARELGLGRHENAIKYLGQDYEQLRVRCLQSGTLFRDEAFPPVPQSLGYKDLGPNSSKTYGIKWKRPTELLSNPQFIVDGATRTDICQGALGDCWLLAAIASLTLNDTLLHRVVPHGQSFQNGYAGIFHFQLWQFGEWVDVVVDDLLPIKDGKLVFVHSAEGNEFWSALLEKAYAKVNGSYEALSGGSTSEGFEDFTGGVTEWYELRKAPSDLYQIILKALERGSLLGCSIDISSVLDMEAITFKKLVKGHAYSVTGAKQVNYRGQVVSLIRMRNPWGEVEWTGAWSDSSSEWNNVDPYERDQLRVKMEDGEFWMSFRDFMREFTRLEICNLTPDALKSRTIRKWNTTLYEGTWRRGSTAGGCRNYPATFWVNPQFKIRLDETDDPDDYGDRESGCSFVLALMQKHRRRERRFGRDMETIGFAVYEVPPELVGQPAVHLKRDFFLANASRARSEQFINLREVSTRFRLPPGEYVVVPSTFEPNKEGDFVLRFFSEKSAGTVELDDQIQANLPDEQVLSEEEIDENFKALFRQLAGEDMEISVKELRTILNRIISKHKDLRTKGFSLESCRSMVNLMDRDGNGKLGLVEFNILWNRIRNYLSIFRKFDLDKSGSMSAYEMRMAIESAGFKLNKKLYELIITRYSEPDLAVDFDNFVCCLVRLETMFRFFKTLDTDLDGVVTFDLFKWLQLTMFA

Cathepsin B = Cathepsin B (Homo sapiens, UniProt P07858); experiment: Inhibition of human Cathepsin B
Mus musculus = species: Mus musculus; experiment: Inhibitory activity of compound was tested for lethal convulsions induced by NMDA in mice; format: functional
[2] = Inhibition of calpain-mediated pp60src degradation in platelets; format: functional, Homo sapiens

CC(C)CC(NC(=O)C1CCN(C(=O)/C=C/c2ccccc2)CC1)C(=O)C(N)=O (stereo not given)
Ki [1]: 1350 nM

NC(=O)C(=O)C(Cc1ccccc1)NC(=O)C1CCN(C(=O)c2cnc3ccccc3c2)CC1 (stereo not given)
Ki [1]: 670 nM

NC(=O)C(=O)C(Cc1ccccc1)NC(=O)C1CCN(C(=O)/C=C/c2ccncc2)CC1 (stereo not given)
Ki [1]: 13500 nM

NC(=O)C(=O)C(Cc1ccccc1)NC(=O)C1CCN(S(=O)(=O)c2ccc3ccccc3c2)CC1 (stereo not given)
Ki [1]: 450 nM

NC(=O)C(=O)C(Cc1ccccc1)NC(=O)C1CCN(C(=O)c2cc3ccccc3s2)CC1 (stereo not given)
Ki (Cathepsin B): 3200 nM | ED50 (Mus musculus): 1 mg/kg | Ki [1]: 9 nM

NC(=O)C(=O)C(Cc1ccccc1)NC(=O)C1CCN(C(=O)c2ccccc2)CC1 (stereo not given)
Ki [1]: 560 nM

NC(=O)C(=O)C(Cc1ccccc1)NC(=O)C1CCN(Cc2ccc3ccccc3c2)CC1 (stereo not given)
Ki [1]: 13600 nM

CCNC(=O)C(=O)C(Cc1ccccc1)NC(=O)C1CCN(S(=O)(=O)c2ccc3ccccc3c2)CC1 (stereo not given)
Ki [1]: 800000 nM

O=C(NCCCN1CCOCC1)C(=O)C(Cc1ccccc1)NC(=O)C1CCN(S(=O)(=O)c2ccc3ccccc3c2)CC1 (stereo not given)
Ki [1]: 810 nM

CCC(NC(=O)C1CCN(C(=O)/C=C/c2ccccc2)CC1)C(=O)C(N)=O (stereo not given)
Ki [1]: 33000 nM

O=C(NCCCN1CCOCC1)C(=O)C(Cc1ccccc1)NC(=O)C1CCN(C(=O)c2ccc3ccccc3c2)CC1 (stereo not given)
Ki [1]: 960 nM

NC(=O)C(=O)C(Cc1ccccc1)NC(=O)C1CCN(C(=O)c2ccc3ccccc3c2)CC1 (stereo not given)
Ki (Cathepsin B): 7300 nM | IC50 [2]: 1800 nM | ED50 (Mus musculus): 1.3 mg/kg | Ki [1]: 30 nM

NC(=O)C(=O)C(Cc1ccccc1)NC(=O)C1CCN(C(=O)/C=C/c2ccccc2)CC1 (stereo not given)
Ki [1]: 460 nM

NC(=O)C(=O)C(Cc1ccccc1)NC(=O)C1CCN(C(=O)c2ccc3ncccc3c2)CC1 (stereo not given)
Ki [1]: 160 nM

CC(C)[C@H](NC(=O)OCc1ccccc1)C(=O)NC(C=O)Cc1ccccc1 (stereo partly drawn) (Cbz-Val-[ξF]-aldehyde)
IC50 [2]: 700 nM
